The record followed here is US10000488B2, “Heterocyclic compound” (TAKEDA PHARMACEUTICAL COMPANY LIMITED, priority 2014, dated 2018).

The target of experiment [1] is T1, RORγt (Homo sapiens, UniProt P51449).
T1 sequence (P51449 1-497 isoform P51449-2): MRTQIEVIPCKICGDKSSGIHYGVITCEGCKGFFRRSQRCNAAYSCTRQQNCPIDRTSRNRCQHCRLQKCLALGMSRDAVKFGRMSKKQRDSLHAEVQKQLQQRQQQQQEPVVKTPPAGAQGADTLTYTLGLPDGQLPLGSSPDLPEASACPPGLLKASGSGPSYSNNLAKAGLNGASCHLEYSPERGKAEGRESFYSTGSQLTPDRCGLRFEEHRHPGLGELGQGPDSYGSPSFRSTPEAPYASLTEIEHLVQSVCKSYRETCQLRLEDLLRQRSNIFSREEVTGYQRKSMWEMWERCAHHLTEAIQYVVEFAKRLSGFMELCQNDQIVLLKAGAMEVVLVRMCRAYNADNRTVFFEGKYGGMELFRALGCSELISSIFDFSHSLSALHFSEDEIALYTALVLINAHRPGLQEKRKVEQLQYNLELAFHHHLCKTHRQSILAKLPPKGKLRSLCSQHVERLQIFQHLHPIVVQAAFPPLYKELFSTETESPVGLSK
The experiment is described as follows: RORγt binding test using fluorescent-labeled synthetic ligand (TR-FRET). The note with it: test compound 1 μM; read-out: binding inhibitory rate (%) of fluorescent-labeled synthetic ligand to RORγt at test compound 1 μM. On the procedure:
RORγt Binding Test Using Fluorescent-Labeled Synthetic Ligand
The binding activity of the test compound to RORγt was measured by a time resolved fluorescence resonance energy transfer (TR-FRET) utilizing histidine-tagged RORγt, fluorescent-labeled synthetic ligand, and terbium-labeled anti-histidine tag antibody (Invitrogen). First, a test compound diluted with an assay buffer (20 mM Tris-HCl (pH 7.5), 100 mM NaCl, 1 mM DTT, 0.1% BSA) was added to a 384 well plate by 3 μL. Then, RORγt diluted with an assay buffer to 240 nM was added by 3 μL, after which fluorescent-labeled synthetic ligand diluted with the assay buffer to 12 μM was added by 3 μL, and the mixture was stood at room temperature for 20 min. Thereafter, a terbium-labeled anti-histidine tag antibody diluted with the assay buffer to 8 nM was added by 3 μL. The mixture was stood at room temperature for 20 min, and fluorescence intensity (excitation wavelength 320 nm, fluorescence wavelength 520 nm, delay time 100 microseconds) was measured by Envision (PerkinElmer).
For orientation: TR-FRET usually uses a lanthanide donor and a delayed reading to cut background.

Experiment [2] addresses T1, RORγt. The experiment in a line: Cofactor recruitment test (Alpha Screen, biotinylated SRC-1 peptide). The format is biochemical. To be noted: read-out: signal value inhibitory rate (%) at test compound 1 μM. On the procedure: Cofactor Recruitment Test
Cofactor recruitment test was performed by Alpha Screen (Histidine Detection Kit, PerkinElmer) method. First, a test compound was diluted with an assay buffer (50 mM Tris-HCl (pH 7.5), 50 mM KCl, 1 mM DTT, 0.1% BSA) and added to a 384 well plate by 5 μL. […] The mixture was stood in a dark place for 1 hr, and the signal value was measured by Envision (PerkinElmer).

Experiment [3] concerns the target T1, RORγt. The experiment in a line: Jurkat reporter test (human IL-17 ROR response element luciferase reporter, RORγt vector). The experiment is classed as cell-based. The note with it: test compound 3 μM; Jurkat cells; read-out: luminescence level inhibitory rate (%) at test compound 3 μM. The method, then: The Jurkat cells used for the reporter test were cultured in a culture medium (RPMI (Invitrogen), 10% FCS (AusGeneX), 100 U/mL penicillin, 100 μg/mL streptomycin). On the day of the test, 4×10^7 cells were recovered by a centrifugal operation (1000 rpm, for 5 min) and suspended in PBS (phosphate buffered saline) (Invitrogen). Thereafter, the cells were recovered again by a centrifugal operation, and suspended in 2 mL of R buffer (NEON transfection kit, Invitrogen). […] Gene transfer was performed by Electroporation apparatus (NEON, Invitrogen) under the conditions of pulse voltage 1350 V, interval 10 milliseconds, number of times 3. The cells after gene transfer were suspended in 40 mL of a reaction medium (RPMI, 10% Lipid reduced FCS (HyClone), 10 mM HEPES (pH 7.5), 100 U/mL penicillin, 100 μg/mL streptomycin, 5 μM lovastatin), and plated in a 96 well plate by 90 μL. A test compound diluted with the reaction medium was added by 10 μL, and the cells were cultured overnight in an incubator. Bright-Glo (Promega) was added by 100 μL, and the mixture was stirred at room temperature for 10 min, and the luminescence level was measured by Envision (PerkinElmer).

For the molecule `COc1ccc2c(c1)C(=O)N([C@@H]1CCCN(C(=O)Nc3cc4c(=O)n(CC5CC5)c(=O)n(C(C)C)c4cc3F)C1)C2` [Example 303, (3R)—N-(3-(cyclopropylmethyl)-7-fluoro-1-isopropyl-2,4-dioxo-1,2,3,4-tetrahydroquinazolin-6-yl)-3-(6-methoxy-1-oxo-1,3-dihydro-2H-isoindol-2-yl)piperidine-1-carboxamide], the inhibition at 1 µM at RORγt [1] came out at 102%; on RORγt [2], 107%. For the same molecule, on RORγt [3], the inhibition at 3 µM amounted to 102%.
As for `CC(C)n1c(=O)n(CC2CC2)c(=O)c2cc(NC(=O)N3CCC[C@@H](NC(=O)c4ccc5c(c4)CCO5)C3)ccc21` [Example 251, (3R)-N-(3-(cyclopropylmethyl)-1-isopropyl-2,4-dioxo-1,2,3,4-tetrahydroquinazolin-6-yl)-3-((2,3-dihydro-1-benzofuran-5-ylcarbonyl)amino)piperidine-1-carboxamide], the inhibition at 1 µM on RORγt [1] was determined as 102%; at RORγt [2] it was 105%. At RORγt [3], the inhibition at 3 µM was 102%.
For the molecule `CC(C)n1c(=O)n(CC2CC2)c(=O)c2cc(NC(=O)[C@@H]3CCC[C@@H]3NC(=O)c3ccc(C#N)cc3)ccc21` [Example 264, 4-cyano-N-((1S,2R)-2-((3-(cyclopropylmethyl)-1-isopropyl-2,4-dioxo-1,2,3,4-tetrahydroquinazolin-6-yl)carbamoyl)cyclopentyl)benzamide], the inhibition at 1 µM came out at 102% at RORγt [1] and 110% at RORγt [2]. The inhibition at 3 µM on RORγt [3] turned out to be 102%.
With `CC(C)n1c(=O)n(CC2CC(F)(F)C2)c(=O)c2cc(NC(=O)N3CCO[C@@H](C(=O)Nc4cc(Cl)c(C#N)cc4F)C3)c(F)cc21` [Example 351, (2R)—N^2-(5-chloro-4-cyano-2-fluorophenyl)-N^4-(3-((3,3-difluorocyclobutyl)methyl)-7-fluoro-1-isopropyl-2,4-dioxo-1,2,3,4-tetrahydroquinazolin-6-yl)morpholine-2,4-dicarboxamide], the inhibition at 1 µM at RORγt [1] came out at 101%; at RORγt [2], 108%. Besides, on RORγt [3], the inhibition at 3 µM stood at 106%.
For `CC(C)n1c(=O)n(CC2CCCO2)c(=O)c2cc(NC(=O)N3CCO[C@@H](C(=O)Nc4ccc(C#N)c(Cl)c4)C3)c(F)cc21` (stereo partly drawn) [Example 333, (2R)—N^2-(3-chloro-4-cyanophenyl)-N^4-(7-fluoro-1-isopropyl-2,4-dioxo-3-(tetrahydrofuran-2-ylmethyl)-1,2,3,4-tetrahydroquinazolin-6-yl)morpholine-2,4-dicarboxamide], the inhibition at 1 µM on RORγt [1] turned out to be 101%; at RORγt [2], 107%. In addition, the inhibition at 3 µM at RORγt [3] came to 106%.
As to `CC(C)n1c(=O)n(CC2CC2)c(=O)c2cc(NC(=O)N3CCC[C@@H](NC(=O)c4cc(F)ccc4F)C3)c(F)cc21` [Example 287, (3R)-N-(3-(cyclopropylmethyl)-7-fluoro-1-isopropyl-2,4-dioxo-1,2,3,4-tetrahydroquinazolin-6-yl)-3-((2,5-difluorobenzoyl)amino)piperidine-1-carboxamide], the inhibition at 1 µM at RORγt [1] turned out to be 102%; at RORγt [2], 111%. In addition, on RORγt [3], the inhibition at 3 µM came out at 100%.
For `COC(=O)c1ccc(C(=O)NC2CCCN(C(=O)Nc3ccc4c(c3)c(=O)n(CC3CC3)c(=O)n4C(C)C)C2)cc1` (stereo not drawn) [Example 132, methyl 4-((1-((3-(cyclopropylmethyl)-1-isopropyl-2,4-dioxo-1,2,3,4-tetrahydroquinazolin-6-yl)carbamoyl)piperidin-3-yl)carbamoyl)benzoate], the inhibition at 1 µM came out at 102% at RORγt [1] and 112% at RORγt [2]. At RORγt [3], the inhibition at 3 µM is 100%.
For the molecule `CC(C)n1c(=O)n(CC2CC2)c(=O)c2cc(NC(=O)N3CCOC(C(=O)Nc4ccc(C#N)c(F)c4)C3)ccc21` (stereo not drawn) [Example 176, N^2-(4-cyano-3-fluorophenyl)-N^4-(3-(cyclopropylmethyl)-1-isopropyl-2,4-dioxo-1,2,3,4-tetrahydroquinazolin-6-yl)morpholine-2,4-dicarboxamide], the inhibition at 1 µM on RORγt [1] is 101%; on RORγt [2] it was 111%. In addition, the inhibition at 3 µM on RORγt [3] is 100%.
